Laboratory results: patent US8933230B2, “Phosphorus-containing group-substituted quinoline, its preparation process, medical composition containing the compounds and application” (priority 2011, dated 2015)

Assays:
Experiment in all cases: KinomeScan kinase panel
Format in all cases: binding
PDPK1 = molecular target: T1, PDPK1 (Homo sapiens, UniProt O15530)
T1 construct: purchased DiscoveRx Corporation (KinomeScan panel)
Experimental: (§1) In this example, the compound prepared in Example 10, N1-[4-[[7-[[1-(diethoxyphosphorylmethyl)-4-piperidinyl]methoxyl]-6-methoxyl-4-quinolyl]oxyl]-3-fluorophenyl]-N1′-(4-fluorophenyl)cyclopropane-1,1-dicarboxamide is tested for the inhibitory effect in the 442-kinase panel of KinomeScan™ (www.kinomescan.com) from DiscoveRx Corporation (4215 Sorrento Valley Blvd, San Diego, Calif. 92121) at 1000 nM of the compound concentration, the results are shown in the following Table 5:
(§2) For the detailed information of the screening technique, see Fabian, M. A. et al, Nat., Biotechnol. 2005, 23, 329 and Karaman, M. W. et al, Nat., Biotechnol. 2008, 26, 127. It can be seen from the following representative results that, the compound according to the present invention has significant inhibitory effect on kinases including c-Met, KDR or VEGFR2, RET, PDGFR-β, c-KIT, Flt3, MEK5, DDR1, LOK, CSF1R, EPHA7, EPHA8, EPHB6, MKNK2, BLK, HIPK4, HCK, Flt4 and the mutants thereof

PFTAIRE2 = molecular target: T2, PFTAIRE2 (Homo sapiens, UniProt Q96Q40)
T2 construct: purchased DiscoveRx Corporation (KinomeScan)
Experimental: as §1, §2

PIM1 = molecular target: T3, PIM1 (Homo sapiens, UniProt P11309)
T3 construct: purchased DiscoveRx Corporation (KinomeScan)
Experimental: as §1, §2

WEE1 = molecular target: T4, WEE1 (Homo sapiens, UniProt P30291)
T4 construct: purchased DiscoveRx Corporation (KinomeScan service)
Experimental: as §1, §2

CDK7 = molecular target: T5, CDK7 (Homo sapiens, UniProt P50613)
T5 construct: purchased DiscoveRx Corporation (KinomeScan)
Experimental: as §1, §2

NEK2 = molecular target: T6, NEK2 (Homo sapiens, UniProt P51955)
T6 construct: purchased DiscoveRx Corporation (KinomeScan)
Experimental: as §1, §2

[1] = molecular target: T7, JAK1(JH1domain-catalytic) (Homo sapiens, UniProt P23458)
T7 construct: JAK1(JH1domain-catalytic); purchased DiscoveRx Corporation (KinomeScan)
Experimental: as §1, §2

PRKD2 = molecular target: T8, PRKD2 (Homo sapiens, UniProt Q9BZL6)
T8 construct: purchased DiscoveRx Corporation (KinomeScan)
Experimental: as §1, §2

DYRK1A = molecular target: T9, DYRK1A (Homo sapiens, UniProt Q13627)
T9 construct: purchased DiscoveRx Corporation (KinomeScan)
Experimental: as §1, §2

PFTK = molecular target: T10, PFTK (Homo sapiens, UniProt O94921)
T10 construct: purchased DiscoveRx Corporation (KinomeScan)
Experimental: as §1, §2

SNARK = molecular target: T11, SNARK (Homo sapiens, UniProt Q9H093)
T11 construct: purchased DiscoveRx Corporation (KinomeScan)
Experimental: as §1, §2

CTK = molecular target: T12, CTK (Homo sapiens, UniProt P42679)
T12 construct: purchased DiscoveRx Corporation (KinomeScan)
Experimental: as §1, §2

SBK1 = molecular target: T13, SBK1 (Homo sapiens, UniProt Q52WX2)
T13 construct: purchased DiscoveRx Corporation (KinomeScan)
Experimental: as §1, §2

MINK = molecular target: T14, MINK (Homo sapiens, UniProt Q8N4C8)
T14 construct: purchased DiscoveRx Corporation (KinomeScan)
Experimental: as §1, §2

ACVR1B = molecular target: T15, ACVR1B (Homo sapiens, UniProt P36896)
T15 construct: purchased DiscoveRx Corporation (KinomeScan)
Experimental: as §1, §2

[2] = molecular target: T16, TYK2(JH1domain-pseudokinase) (Homo sapiens, UniProt P29597)
T16 construct: pseudokinase; purchased DiscoveRx Corporation (KinomeScan service)
Experimental: as §1, §2

STK35 = molecular target: T17, STK35 (Homo sapiens, UniProt Q8TDR2)
T17 construct: purchased DiscoveRx Corporation (KinomeScan)
Experimental: as §1, §2

CAMK1D = molecular target: T18, CAMK1D (Homo sapiens, UniProt Q8IU85)
T18 construct: purchased DiscoveRx Corporation (KinomeScan)
Experimental: as §1, §2

KIT(L576P) = molecular target: T19, KIT(L576P) (Homo sapiens, UniProt P10721, L576P)
T19 construct: purchased DiscoveRx Corporation (KinomeScan)
Experimental: as §1, §2

PAK2 = molecular target: T20, PAK2 (Homo sapiens, UniProt Q13177)
T20 construct: purchased DiscoveRx Corporation (KinomeScan panel)
Experimental: as §1, §2

DCAMKL2 = molecular target: T21, DCAMKL2 (Homo sapiens, UniProt Q8N568)
T21 construct: purchased DiscoveRx Corporation (KinomeScan)
Experimental: as §1, §2

PRKCH = molecular target: T22, PRKCH (Homo sapiens, UniProt P24723)
T22 construct: purchased DiscoveRx Corporation (KinomeScan)
Experimental: as §1, §2

FES = molecular target: T23, FES (Homo sapiens, UniProt P07332)
T23 construct: purchased DiscoveRx Corporation (KinomeScan)
Experimental: as §1, §2

AMPK-alpha1 = molecular target: T24, AMPK-alpha1 (Homo sapiens, UniProt Q13131)
T24 construct: purchased DiscoveRx Corporation (KinomeScan)
Experimental: as §1, §2

MARK2 = molecular target: T25, MARK2 (Homo sapiens, UniProt Q7KZI7)
T25 construct: purchased DiscoveRx Corporation (KinomeScan)
Experimental: as §1, §2

MKNK1 = molecular target: T26, MKNK1 (Homo sapiens, UniProt Q9BUB5)
T26 construct: purchased DiscoveRx Corporation (KinomeScan)
Experimental: as §1, §2

TSSK1B = molecular target: T27, TSSK1B (Homo sapiens, UniProt Q9BXA7)
T27 construct: purchased DiscoveRx Corporation (KinomeScan)
Experimental: as §1, §2

MST3 = molecular target: T28, MST3 (Homo sapiens, UniProt Q9Y6E0)
T28 construct: purchased DiscoveRx Corporation (KinomeScan)
Experimental: as §1, §2

CSF1R = molecular target: T29, CSF1R (Homo sapiens, UniProt P07333)
T29 construct: purchased DiscoveRx Corporation (KinomeScan)
Experimental: as §1, §2

FGFR = molecular target: T30, FGFR (Homo sapiens, UniProt P21802)
T30 construct: purchased DiscoveRx Corporation (KinomeScan)
Experimental: as §1, §2

[3] = molecular target: T31, RSK1(Kin.Dom.1-N-terminal) (Homo sapiens, UniProt Q15418)
T31 construct: Kin.Dom.1; purchased DiscoveRx Corporation
Experimental: as §1, §2

SYK = molecular target: T32, SYK (Homo sapiens, UniProt P43405)
T32 construct: purchased DiscoveRx Corporation (KinomeScan)
Experimental: as §1, §2

MRCKA = molecular target: T33, MRCKA (Homo sapiens, UniProt Q5VT25)
T33 construct: purchased DiscoveRx Corporation (KinomeScan)
Experimental: as §1, §2

NLK = molecular target: T34, NLK (Homo sapiens, UniProt Q9UBE8)
T34 construct: purchased DiscoveRx Corporation (KinomeScan panel)
Experimental: as §1, §2

BRSK1 = molecular target: T35, BRSK1 (Homo sapiens, UniProt Q8TDC3)
T35 construct: purchased DiscoveRx Corporation (KinomeScan)
Experimental: as §1, §2

T14 sequence (Q8N4C8 whole entry): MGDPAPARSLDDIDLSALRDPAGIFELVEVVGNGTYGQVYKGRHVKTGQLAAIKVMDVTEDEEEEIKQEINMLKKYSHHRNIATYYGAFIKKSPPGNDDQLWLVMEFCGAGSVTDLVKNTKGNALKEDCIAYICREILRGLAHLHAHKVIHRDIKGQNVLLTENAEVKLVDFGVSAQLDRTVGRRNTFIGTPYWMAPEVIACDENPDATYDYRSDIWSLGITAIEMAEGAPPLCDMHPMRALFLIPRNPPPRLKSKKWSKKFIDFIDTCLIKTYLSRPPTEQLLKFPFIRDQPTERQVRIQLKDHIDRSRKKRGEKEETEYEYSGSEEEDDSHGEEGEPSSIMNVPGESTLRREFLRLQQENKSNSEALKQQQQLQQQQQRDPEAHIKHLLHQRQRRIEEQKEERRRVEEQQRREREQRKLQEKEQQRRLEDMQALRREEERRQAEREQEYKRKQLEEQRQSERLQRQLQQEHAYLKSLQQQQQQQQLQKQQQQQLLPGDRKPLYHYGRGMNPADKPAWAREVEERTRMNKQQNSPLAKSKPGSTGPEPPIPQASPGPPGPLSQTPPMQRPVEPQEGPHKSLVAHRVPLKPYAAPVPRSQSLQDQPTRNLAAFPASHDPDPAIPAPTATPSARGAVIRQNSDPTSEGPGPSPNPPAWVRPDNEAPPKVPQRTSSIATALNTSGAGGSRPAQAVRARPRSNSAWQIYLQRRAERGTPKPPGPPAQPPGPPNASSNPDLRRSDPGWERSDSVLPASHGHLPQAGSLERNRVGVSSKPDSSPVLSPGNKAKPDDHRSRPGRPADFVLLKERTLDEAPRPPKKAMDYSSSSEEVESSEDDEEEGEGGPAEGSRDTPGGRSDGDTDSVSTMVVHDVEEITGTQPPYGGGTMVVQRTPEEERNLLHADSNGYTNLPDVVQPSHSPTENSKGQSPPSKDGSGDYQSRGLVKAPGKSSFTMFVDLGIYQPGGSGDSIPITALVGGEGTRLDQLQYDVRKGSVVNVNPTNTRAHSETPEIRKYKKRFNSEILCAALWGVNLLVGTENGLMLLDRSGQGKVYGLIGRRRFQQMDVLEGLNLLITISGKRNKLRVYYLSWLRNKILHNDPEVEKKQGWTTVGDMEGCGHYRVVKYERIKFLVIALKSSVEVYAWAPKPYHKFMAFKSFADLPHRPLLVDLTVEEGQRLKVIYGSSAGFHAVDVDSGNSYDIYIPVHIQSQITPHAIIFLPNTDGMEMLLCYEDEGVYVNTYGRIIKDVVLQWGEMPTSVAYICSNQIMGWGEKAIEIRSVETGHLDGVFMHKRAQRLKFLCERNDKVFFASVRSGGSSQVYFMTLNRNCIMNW
T28 sequence (Q9Y6E0 whole entry): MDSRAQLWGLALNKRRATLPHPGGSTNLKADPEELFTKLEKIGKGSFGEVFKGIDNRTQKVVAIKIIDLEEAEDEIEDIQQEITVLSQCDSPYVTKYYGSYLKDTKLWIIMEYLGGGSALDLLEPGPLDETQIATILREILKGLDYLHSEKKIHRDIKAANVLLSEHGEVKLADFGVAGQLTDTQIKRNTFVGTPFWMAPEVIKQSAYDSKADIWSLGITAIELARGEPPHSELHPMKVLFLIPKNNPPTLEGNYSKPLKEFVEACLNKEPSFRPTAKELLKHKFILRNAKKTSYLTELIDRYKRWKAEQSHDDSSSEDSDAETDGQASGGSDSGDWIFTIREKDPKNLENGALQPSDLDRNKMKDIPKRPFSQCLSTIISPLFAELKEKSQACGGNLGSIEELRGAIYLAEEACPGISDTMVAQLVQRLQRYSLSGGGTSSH
T31 sequence (Q15418 62-321 limits assumed): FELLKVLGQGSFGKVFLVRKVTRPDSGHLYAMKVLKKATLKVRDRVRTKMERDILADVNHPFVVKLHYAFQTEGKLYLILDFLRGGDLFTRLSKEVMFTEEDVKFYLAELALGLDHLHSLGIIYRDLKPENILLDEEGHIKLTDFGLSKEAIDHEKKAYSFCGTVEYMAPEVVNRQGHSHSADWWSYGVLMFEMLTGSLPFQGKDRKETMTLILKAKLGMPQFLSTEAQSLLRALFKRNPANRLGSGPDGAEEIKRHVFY
T6 sequence (P51955 whole entry): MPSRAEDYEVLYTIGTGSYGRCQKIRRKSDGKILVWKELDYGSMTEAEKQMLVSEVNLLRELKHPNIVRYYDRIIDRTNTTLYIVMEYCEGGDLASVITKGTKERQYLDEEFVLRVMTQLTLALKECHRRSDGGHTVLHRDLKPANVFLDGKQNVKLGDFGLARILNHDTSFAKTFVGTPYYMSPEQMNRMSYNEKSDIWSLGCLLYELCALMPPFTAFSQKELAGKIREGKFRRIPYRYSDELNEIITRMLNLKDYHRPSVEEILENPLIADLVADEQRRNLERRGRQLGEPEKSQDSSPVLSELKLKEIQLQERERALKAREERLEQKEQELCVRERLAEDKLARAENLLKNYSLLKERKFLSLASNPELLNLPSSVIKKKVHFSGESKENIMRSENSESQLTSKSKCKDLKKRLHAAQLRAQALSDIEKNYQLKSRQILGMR
T5 sequence (P50613 whole entry): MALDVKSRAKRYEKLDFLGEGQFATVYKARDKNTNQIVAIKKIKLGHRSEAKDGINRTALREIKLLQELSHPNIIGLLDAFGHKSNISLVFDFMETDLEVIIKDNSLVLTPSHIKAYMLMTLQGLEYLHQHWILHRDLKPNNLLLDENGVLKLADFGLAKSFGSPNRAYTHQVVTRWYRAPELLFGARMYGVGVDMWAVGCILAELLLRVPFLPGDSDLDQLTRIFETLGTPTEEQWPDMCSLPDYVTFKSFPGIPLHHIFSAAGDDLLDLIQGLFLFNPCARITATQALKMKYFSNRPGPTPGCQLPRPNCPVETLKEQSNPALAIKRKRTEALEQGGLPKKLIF
T4 sequence (P30291 whole entry): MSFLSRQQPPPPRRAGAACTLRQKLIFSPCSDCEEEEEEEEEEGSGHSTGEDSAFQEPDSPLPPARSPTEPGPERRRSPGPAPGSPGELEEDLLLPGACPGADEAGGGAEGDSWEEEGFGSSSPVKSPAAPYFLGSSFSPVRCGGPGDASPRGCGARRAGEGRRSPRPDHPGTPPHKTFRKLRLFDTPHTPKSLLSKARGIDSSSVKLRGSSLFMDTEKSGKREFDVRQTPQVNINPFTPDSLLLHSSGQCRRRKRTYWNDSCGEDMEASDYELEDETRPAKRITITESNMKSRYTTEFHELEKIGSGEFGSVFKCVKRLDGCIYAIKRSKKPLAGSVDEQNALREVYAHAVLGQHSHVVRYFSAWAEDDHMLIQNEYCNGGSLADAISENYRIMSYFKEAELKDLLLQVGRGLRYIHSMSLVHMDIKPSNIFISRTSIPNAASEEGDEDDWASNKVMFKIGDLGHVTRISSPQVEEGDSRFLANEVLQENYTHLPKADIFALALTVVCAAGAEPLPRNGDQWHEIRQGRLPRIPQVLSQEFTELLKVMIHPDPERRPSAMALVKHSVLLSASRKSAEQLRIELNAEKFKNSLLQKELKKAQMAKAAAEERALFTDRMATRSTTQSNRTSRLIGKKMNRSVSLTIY
T18 sequence (Q8IU85 whole entry): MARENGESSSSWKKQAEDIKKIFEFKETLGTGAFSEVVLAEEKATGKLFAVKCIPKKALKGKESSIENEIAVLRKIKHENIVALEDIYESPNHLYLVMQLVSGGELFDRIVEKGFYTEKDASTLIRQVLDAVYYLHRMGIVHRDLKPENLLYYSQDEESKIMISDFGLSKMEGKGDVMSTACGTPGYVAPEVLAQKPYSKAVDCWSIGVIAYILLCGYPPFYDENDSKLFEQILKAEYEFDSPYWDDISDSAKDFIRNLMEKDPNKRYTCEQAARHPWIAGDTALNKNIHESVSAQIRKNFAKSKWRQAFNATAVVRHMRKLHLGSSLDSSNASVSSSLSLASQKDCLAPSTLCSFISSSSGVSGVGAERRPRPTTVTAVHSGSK
T27 sequence (Q9BXA7 whole entry): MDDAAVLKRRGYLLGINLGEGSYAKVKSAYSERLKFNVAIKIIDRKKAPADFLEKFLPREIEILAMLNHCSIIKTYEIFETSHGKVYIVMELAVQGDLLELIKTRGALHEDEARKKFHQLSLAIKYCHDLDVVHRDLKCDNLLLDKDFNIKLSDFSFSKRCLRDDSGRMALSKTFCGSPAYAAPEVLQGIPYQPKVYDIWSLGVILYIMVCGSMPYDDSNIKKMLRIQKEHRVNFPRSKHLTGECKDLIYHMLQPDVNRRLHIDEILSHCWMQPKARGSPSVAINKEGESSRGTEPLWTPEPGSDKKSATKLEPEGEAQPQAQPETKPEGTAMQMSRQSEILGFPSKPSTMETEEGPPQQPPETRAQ
T17 sequence (Q8TDR2 whole entry): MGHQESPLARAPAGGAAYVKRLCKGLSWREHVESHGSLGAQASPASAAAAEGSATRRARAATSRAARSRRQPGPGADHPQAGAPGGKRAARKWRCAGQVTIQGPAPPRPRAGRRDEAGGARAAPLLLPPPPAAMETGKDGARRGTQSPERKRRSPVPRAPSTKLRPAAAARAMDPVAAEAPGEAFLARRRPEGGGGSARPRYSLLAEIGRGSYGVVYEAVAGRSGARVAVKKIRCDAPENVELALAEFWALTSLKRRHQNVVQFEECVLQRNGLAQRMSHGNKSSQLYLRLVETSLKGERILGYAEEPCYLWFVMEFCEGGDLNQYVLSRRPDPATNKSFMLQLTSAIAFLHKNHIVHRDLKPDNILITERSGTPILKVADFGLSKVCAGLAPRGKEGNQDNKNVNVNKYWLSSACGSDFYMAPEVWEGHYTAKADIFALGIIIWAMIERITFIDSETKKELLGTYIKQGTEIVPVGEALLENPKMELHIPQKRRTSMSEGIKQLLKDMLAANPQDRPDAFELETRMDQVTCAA

CCOP(=O)(CN1CCC(COc2cc3nccc(Oc4ccc(NC(=O)C5(C(=O)Nc6ccc(F)cc6)CC5)cc4F)c3cc2OC)CC1)OCC [Example 10, N1-[4-[[7-[[1-(diethoxyphosphorylmethyl)-4-piperidinyl]methoxyl]-6-methoxyl-4-quinolyl]oxyl]-3-fluorophenyl]-N1′-(4-fluorophenyl)cyclopropane-1,1-dicarboxamide]
% Ctrl@1000 nM (PDPK1): 100 % Ctrl
% Ctrl@1000 nM (PFTAIRE2): 87 % Ctrl
% Ctrl@1000 nM (PIM1): 96 % Ctrl
% Ctrl@1000 nM (WEE1): 100 % Ctrl
% Ctrl@1000 nM (CDK7): 15 % Ctrl
% Ctrl@1000 nM (NEK2): 100 % Ctrl
% Ctrl@1000 nM [1]: 93 % Ctrl
% Ctrl@1000 nM (PRKD2): 100 % Ctrl
% Ctrl@1000 nM (DYRK1A): 100 % Ctrl
% Ctrl@1000 nM (PFTK): 100 % Ctrl
% Ctrl@1000 nM (SNARK): 100 % Ctrl
% Ctrl@1000 nM (CTK): 100 % Ctrl
% Ctrl@1000 nM (SBK1): 100 % Ctrl
% Ctrl@1000 nM (MINK): 100 % Ctrl
% Ctrl@1000 nM (ACVR1B): 100 % Ctrl
% Ctrl@1000 nM [2]: 100 % Ctrl
% Ctrl@1000 nM (STK35): 82 % Ctrl
% Ctrl@1000 nM (CAMK1D): 96 % Ctrl
% Ctrl@1000 nM (KIT(L576P)): 0 % Ctrl
% Ctrl@1000 nM (PAK2): 54 % Ctrl
% Ctrl@1000 nM (DCAMKL2): 100 % Ctrl
% Ctrl@1000 nM (PRKCH): 100 % Ctrl
% Ctrl@1000 nM (FES): 44 % Ctrl
% Ctrl@1000 nM (AMPK-alpha1): 100 % Ctrl
% Ctrl@1000 nM (MARK2): 100 % Ctrl
% Ctrl@1000 nM (MKNK1): 45 % Ctrl
% Ctrl@1000 nM (TSSK1B): 100 % Ctrl
% Ctrl@1000 nM (MST3): 100 % Ctrl
% Ctrl@1000 nM (CSF1R): 0.25 % Ctrl
% Ctrl@1000 nM (FGFR): 76 % Ctrl
% Ctrl@1000 nM [3]: 59 % Ctrl
% Ctrl@1000 nM (SYK): 58 % Ctrl
% Ctrl@1000 nM (MRCKA): 100 % Ctrl
% Ctrl@1000 nM (NLK): 100 % Ctrl
% Ctrl@1000 nM (BRSK1): 100 % Ctrl
